Experimental data from patent US10189831B2, “Non-nucleoside reverse transcriptase inhibitors” (Merck Sharp & Dohme Corp., priority 2012, dated 2019).

Biological target: HIV-1 RT wild-type enzyme (Human immunodeficiency virus type 1 group M subtype B (isolate HXB2) (HIV-1), UniProt P04585)
Assay: Determination of HIV-1 reverse transcriptase inhibitory activity (RT polymerase assay)
Assay type: biochemical
Settings: HIV-1 RT wild-type enzyme 83 pM, RNA-dependent DNA polymerase reaction
Method: The heterodimeric nucleic acid substrate used in the HIV-1 RT polymerase reactions was generated by annealing the DNA primer, biotinylated pD500 (Sigma Aldrich, USA, 5′-biotin-ttg aaa tga ctg cgg tac ggc-3′), SEQ ID NO. 1 to the nucleotide RNA template t500 (derived from hepatitis C virus [HCV] sequence, IBA, Germany, 5′-[…]-3′), SEQ ID NO 2.). […] The mixture was then preincubated on an orbital shaker for 30 min at room temperature in microtiter plates (Costar 3365, Corning, USA). A polymerization reaction was initiated by the addition of RNA template/pD500 DNA primer hybrid (16.6 nM final of RNA/DNA hybrid) and dNTPs (2 μM dATP, dGTP, dCTP and 66.6 nM Ru-dUTP (Meso Scale Discovery, USA)). Plate was sealed and incubated for 5-10 min at room temperature on an orbital shaker. Plate was then incubated for 90 min at 37° C. and reactions quenched with 60 μl quenching buffer (50 mM EDTA, 0.7% BSA, 0.7% Tween-20, 0.017% sodium azide in PBS). […] After washing plate 3 times with 150 μL 1×PBS and blotting dry between cycles, 150 μL 1× Read Buffer T (4× Read Buffer T, Meso Scale Discovery) was added and incubated for 5 min at room temperature before counting on a Sector Imager S6000 (Meso Scale Discovery). Titration curves and IC50 values were calculated using a four parameter logistic fit according to standard procedures. […]

SMILES: CC(C)c1ccc(-c2cc(Cn3cnc(C(F)(F)F)c(Oc4cc(Cl)cc(C#N)c4)c3=O)n[nH]c2=O)cc1 [Example 49, 3-chloro-5-((1-((5-(4-isopropylphenyl)-6-oxo-1,6-dihydropyridazin-3-yl)methyl)-6-oxo-4-(trifluoromethyl)-1,6-dihydropyrimidin-5-yl)oxy)benzonitrile]
- IC50: 15 nM
